{
  "source": "patent US10758627B2",
  "about": "“Peptide-polynucleotide complex for polynucleotide transfection” (Washington University, priority 2015, dated 2020)",
  "system": "B16 cells stably expressing GFP-PEST",
  "test": "Screening for siRNA knockdown: delivery of GFP siRNA for knockdown of GFP in B16 GFP cells",
  "format": "cell-based",
  "conditions": "for Able to transfect?: peptide/GFP siRNA particle",
  "procedure": "Knockdown of B16 cells stably expressing GFP-PEST allowed quick screening for effective siRNA knockdown of GFP expression because the PEST sequence shortens GFP half-life from 26 to 10 hours. Melittin derivatives were chosen based on modifications designed to decrease cytotoxicity as well as improve interactions with oligonucleotides. These peptides were screened for their ability to deliver GFP siRNA for the knockdown of GFP in B16 GFP cells (Table 1, FIG. 1).\nThe melittin derivatives were formulated by Genscript (Piscataway, N.J.), dissolved at 10 mM in RNAse/DNAse free water (Sigma, St. Louis, Mo.) and stored in 4 μl aliquots at −80° C. before use. Transfection complexes were prepared by diluting the peptide 1:200 in phosphate buffered saline (PBS, Sigma), vortexed for 30 seconds, followed by addition of the appropriate amount of siRNA (stock concentration of 10 μM in 1× siRNA buffer (Thermo)) and incubated for 40 minutes at 37° C. with shaking in an Eppendorf Thermomixer R. Resulting nanoparticles were analyzed for siRNA incorporation by resolution on a 12% polyacrylamide gel followed by ethidium bromide staining. Dynamic light scattering (DLS) and zeta potential measurements were performed on a Zeta Plus particle sizer (Brookhaven Instruments, Newton, Mass.). Serum stability analysis was performed by incubating freshly formed peptide/siRNA nanoparticles in 10 mg/ml Human Serum Albumin (HSA, Sigma) overnight followed by DLS and zeta potential measurements.\nB16F10 and RAW264.7 (ATCC, Manassas, Va.) cell lines can be maintained under standard cell culture conditions (37° C. and 5% CO2 in a humidified incubator) in DMEM (Gibco, Carlsbad, Calif.) supplemented with 10% fetal bovine serum (Gibco). B16F10 cells stably expressing GFP can be produced as follows. B16F10 can be transfected (Lipofectamine 2000, Invitrogen) with a fusion of EGFP (pEGFP-N1, Clontech) and the PEST sequence from mouse ornithine decarboxylase (S421-V461) in pEF6V5HisTOPO (Invitrogen). Cells are selected for four rounds with cell sorting by flow cytometry without antibiotic selection. Typically, an aliquot of cells can be maintained in continuous culture for a month without a noticeable change in EGFP expression level. Human umbilical vein endothelial cells (HUVECs) can be purchased from Lifeline Technologies (Frederick, Md.) and cultured in VascuLife Basal Medium (Lifeline Technologies) supplemented with 5 ng/mL EGF, 5 ng/ml bFGF, 15 ng/mL IGF-1, 50 μg/mL ascorbic acid, 1 μg/mL hydrocortisone hem isuccinate, 0.75 U/mL Heparin Sulfate, 10 mM L-glutamine, 2% fetal bovine serum in accordance with manufacturer instructions.\nFor transfection, cells can be plated in 6 well plates 12 hours before transfection and cultured under standard cell culture conditions. Peptide/siRNA nanoparticles are prepared and incubated with cells for 4 hours in a final volume of 1 mL Optimem I (Gibco) or appropriate media supplemented with 10% FBS. Transfections are scaled accordingly for cells plated in 12 well plates based on cell culture surface area. After transfection, cells are washed twice with PBS and incubated with standard cell culture medium for another 24-72 hours before analysis. Lipofectamine 2000 can be used in accordance with the manufacturer's protocol. Briefly, Lipofectamine 2000 is diluted in Optimem I to a final concentration of 8.4 μg/ml and incubated at room temperature for 15 minutes. siRNA is then added to the diluted lipid and incubated for another 40 minutes before dilution to 1 mL total volume with Optimem I for transfection. Suitable eGFP siRNA can be purchased from Sigma. siGENOME mouse MAPK9 siRNA1, siGENOME mouse STAT3 siRNA2, and siGENOME human STAT3 siRNA2 gene specific siRNAs can be purchased from Dharmacon (Lafayette, Colo.). Scrambled siRNA can be purchased from Qiagen (Valencia, Calif.).",
  "key": {"[1]": {"conditions": "charge ratio (+/−) 6:1 (peptide/siRNA 28:1 to 62:1 depending on peptide)"}, "[2]": {"conditions": "charge ratio (+/−) 12:1 (peptide/siRNA 56:1 to 124:1 depending on peptide)"}, "[3]": {"conditions": "charge ratio (+/−) 24:1 (peptide/siRNA 112:1 to 248:1 depending on peptide)"}, "[4]": {"conditions": "ratio of peptide:polynucleotide between 50:1 and 200:1"}},
  "data": [
    {"molecule": "VLTTGLPALISWIKRKRQQRWRRRR [Peptide 5RWR]", "values": [
      {"measurement": "Able to transfect?", "setting": "[1]", "value": "No"},
      {"measurement": "Able to transfect?", "setting": "[2]", "value": "No"},
      {"measurement": "Able to transfect?", "setting": "[3]", "value": "No"}
    ]},
    {"molecule": "VLTTGLPALISWIRRRHRRHC [Peptide 5RHH]", "values": [
      {"measurement": "Able to transfect?", "setting": "[1]", "value": "Yes"},
      {"measurement": "Able to transfect?", "setting": "[2]", "value": "Yes"},
      {"measurement": "Able to transfect?", "setting": "[3]", "value": "Yes"},
      {"measurement": "GFP knockdown", "setting": "[4]", "value": "exhibited GFP knockdown"},
      {"measurement": "ability to transfect", "setting": "[4]", "value": "able to transfect"}
    ]},
    {"molecule": "VLTTGLPALISWIKRKRQQC [Peptide 5C]", "values": [
      {"measurement": "Able to transfect?", "setting": "[1]", "value": "No"},
      {"measurement": "Able to transfect?", "setting": "[2]", "value": "No"},
      {"measurement": "Able to transfect?", "setting": "[3]", "value": "No"}
    ]},
    {"molecule": "VLTTGLPALISWIKRKRQHRWRRRR [Peptide 5RWRH]", "values": [
      {"measurement": "Able to transfect?", "setting": "[1]", "value": "Yes"},
      {"measurement": "Able to transfect?", "setting": "[2]", "value": "No"},
      {"measurement": "Able to transfect?", "setting": "[3]", "value": "No"},
      {"measurement": "ability to transfect", "setting": "ratio of 50:1", "value": "did not work"},
      {"measurement": "ability to transfect", "setting": "ratio of peptide:polynucleotide less than 50:1", "value": "able to transfect"}
    ]},
    {"molecule": "CC[C@H](C)[C@H](NC(=O)CN)C(=O)NCC(=O)N[C@@H](C)C(=O)N[C@H](C(=O)N[C@@H](CC(C)C)C(=O)N[C@@H](CCCCN)C(=O)N[C@H](C(=O)N[C@@H](CC(C)C)C(=O)N[C@H](C(=O)N[C@H](C(=O)NCC(=O)N[C@@H](CC(C)C)C(=O)N1CCC[C@H]1C(=O)N[C@@H](C)C(=O)N[C@@H](CC(C)C)C(=O)N[C@H](C(=O)N[C@@H](CO)C(=O)N[C@@H](Cc1c[nH]c2ccccc12)C(=O)N[C@H](C(=O)N[C@@H](CCCCN)C(=O)N[C@@H](CCCNC(=N)N)C(=O)N[C@@H](CCCCN)C(=O)N[C@@H](CCCNC(=N)N)C(=O)N[C@@H](CCC(N)=O)C(=O)N[C@@H](CCC(N)=O)C(N)=O)[C@@H](C)CC)[C@@H](C)CC)[C@@H](C)O)[C@@H](C)O)C(C)C)C(C)C", "note": "[Melittin]", "values": [
      {"measurement": "toxicity to cells in the tested concentration range", "setting": "B16 GFP cells, concentration range of the screen", "value": "too toxic"},
      {"measurement": "Able to transfect?", "setting": "[1]", "value": "No"},
      {"measurement": "Able to transfect?", "setting": "[2]", "value": "Toxic"},
      {"measurement": "Able to transfect?", "setting": "[3]", "value": "Toxic"}
    ]}
  ]
}
